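Test compounds were applied to cells in 96-well plates for 48 hours at 5 doses. GI50: concentration for 50% inhibition of growth. TGI denotes the concentration required for complete inhibition of growth.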 Where a SMILES comes first, the peptide text is derived from it. [ ]: non-standard residue; d: D form. The star is where a group is joined. ξ: configuration not given here. ξF = NC(Cc1ccccc1)C(=O)O; Cbz = O=C(OCc1ccccc1)*; Aib = CC(C)(N)C(=O)O
What was measured:
Assay in all cases: inhibition of tumour cell growth, NCI panel, 48 h
HOP-62 NSCLC = system: HOP-62 NSCLC
KM12 colon = system: KM12 colon
EKVX NSCLC = system: EKVX NSCLC
MDA-MB-435 = system: MDA-MB-435
MCF7 breast = system: MCF7 breast
RPMI-8226 leukemia = system: RPMI-8226 leukemia
SK-MEL-2 melanoma = system: SK-MEL-2 melanoma
CAKI-1 renal = system: CAKI-1 renal
TK-10 renal = system: TK-10 renal
SF-268 CNS = system: SF-268 CNS
CCRF-CEM leukemia = system: CCRF-CEM leukemia

## CC(=O)ON1C(=O)c2cccc3cccc(c23)C1=O
HOP-62 NSCLC
  TGI: 85.4 µM
KM12 colon
  TGI: > 100 µM
EKVX NSCLC
  TGI: > 100 µM
MDA-MB-435
  TGI: 39.8 µM
MCF7 breast
  TGI: > 100 µM
RPMI-8226 leukemia
  TGI: 53.4 µM
SK-MEL-2 melanoma
  TGI: 67.6 µM
CAKI-1 renal
  TGI: 49 µM
TK-10 renal
  TGI: 88.5 µM
SF-268 CNS
  TGI: > 100 µM
CCRF-CEM leukemia
  TGI: > 100 µM

## CCOC(=O)CCC(NC(=O)OCc1ccccc1)C(=O)NC(CCC(=O)OCC)C(=O)NNC(=O)OC(C)(C)C (centres undefined)
HOP-62 NSCLC
  TGI: > 100 µM
KM12 colon
  TGI: > 100 µM
MDA-MB-435
  TGI: > 100 µM
MCF7 breast
  TGI: > 100 µM
RPMI-8226 leukemia
  TGI: > 100 µM
SK-MEL-2 melanoma
  TGI: > 100 µM
CAKI-1 renal
  TGI: > 100 µM
CCRF-CEM leukemia
  TGI: > 100 µM

## c1cncc(O[Si](Oc2cccnc2)(Oc2cccnc2)Oc2cccnc2)c1
KM12 colon
  TGI: > 100 µM
EKVX NSCLC
  TGI: > 100 µM
SK-MEL-2 melanoma
  TGI: > 100 µM
CAKI-1 renal
  TGI: > 100 µM
TK-10 renal
  TGI: > 100 µM

## Nc1c(-c2ccccc2[N+](=O)[O-])nc2ccccn12
HOP-62 NSCLC
  TGI: > 100 µM
KM12 colon
  TGI: > 100 µM
EKVX NSCLC
  TGI: > 100 µM
RPMI-8226 leukemia
  TGI: > 100 µM
SK-MEL-2 melanoma
  TGI: > 100 µM
TK-10 renal
  TGI: > 100 µM
SF-268 CNS
  TGI: > 100 µM
CCRF-CEM leukemia
  TGI: > 100 µM

## C[CH2][Ge]([CH2]C)([CH2]C)[O]C(=O)CCC(=O)[O][Ge]([CH2]C)([CH2]C)[CH2]C
HOP-62 NSCLC
  GI50: > 100 µM
  TGI: > 100 µM
KM12 colon
  GI50: 55.2 µM
  TGI: > 100 µM
EKVX NSCLC
  GI50: 20.5 µM
  TGI: > 100 µM
RPMI-8226 leukemia
  GI50: 0.249 µM
  TGI: > 100 µM
SK-MEL-2 melanoma
  GI50: > 100 µM
  TGI: > 100 µM
CAKI-1 renal
  GI50: > 100 µM
  TGI: > 100 µM
TK-10 renal
  GI50: > 100 µM
  TGI: > 100 µM
SF-268 CNS
  GI50: > 100 µM
  TGI: > 100 µM
CCRF-CEM leukemia
  GI50: 23.7 µM
  TGI: > 100 µM

## COC(=O)C(C)(C)NC(=O)C(Cc1ccccc1)NC(=O)C(C)(C)NC(=O)OCc1ccccc1 (centres undefined) (Cbz-[Aib]-[ξF]-[Aib]-OMe)
HOP-62 NSCLC
  TGI: > 100 µM
EKVX NSCLC
  TGI: > 100 µM
MDA-MB-435
  TGI: > 100 µM
MCF7 breast
  TGI: > 100 µM
RPMI-8226 leukemia
  TGI: > 100 µM
CAKI-1 renal
  TGI: > 100 µM
TK-10 renal
  TGI: > 100 µM
SF-268 CNS
  TGI: > 100 µM
CCRF-CEM leukemia
  TGI: > 100 µM

— PubChem BioAssay (NCI)
